Tested on: HT-29 cells
Assay: Cellular uptake of FITC-BSA by CLSM in HT-29 cells
Type: cell-based
Conditions: 37° C., 3 h, P/T ratio 1/3 by weight
Description: Cellular Uptake of Protein-Loaded Telodendrimer Nanoparticles. Green fluorescent FITC-BSA molecules were used to probe the intracellular trafficking of proteins without and with telodendrimer nanoparticles. HT-29 colon cancer cells were incubated with free FITC-BSA and FITC-BSA-loaded telodendrimer nanoparticles, and were imaged by confocal laser scanning microscopy (CLSM). […] Only a small amount of the FITC-BSA molecules loaded in the nanoparticles of the telodendrimers containing four guanidine groups at a P/T ratio of 1/3 by weight could be delivered to the cellular interiors (green fluorescence in FIG. 6b). […] The poor intracellular protein delivery efficiency of the telodendrimers containing four guanidine groups may restrict their applications for intracellular delivery, however, this endows them with the potential to serve as nanocarriers for systemic delivery of proteins such as insulin. […]
Cellular Uptake. The cellular uptake and intracellular trafficking of the protein-incorporated nanoparticles were determined by fluorescence microscopy. […] The slides were mounted with cover slips and cells were imaged with a […] FV1000 laser scanning confocal fluorescence microscope.

FITC-BSA: Fluorescein isothiocyanate (FITC) labeled bovine serum albumin, fluorescent model protein
cellular uptake of FITC-BSA: could hardly enter the cells spontaneously

— US11649326B2, “Functional, segregated, charged telodendrimers and nanocarriers and methods of making and using same” (The Research Foundation for the State University of New York, priority 2015, dated 2023)
